The conditions of series [1]: cited from earlier work.
For series [2], the system named is UV-induced lipid peroxidation. The series is described as follows: in vitro liposomal/UV assay, inhibition of UV-induced lipid peroxidation. It counts as biochemical. Here is the method:
The antioxidant potential and stability of equimolar concentrations of tocopherol-cysteamine, cysteamine, and a α-tocopherol were compared using an in vitro liposomal/UV assay. This assay provides an effective means of measuring an antioxidant's potential to inhibit UV-induced lipid peroxidation which may correlate with the antioxidant's inhibition of free radical generation in the skin. […] The antioxidant contribution of cysteamine to the derivative was tested by measuring cysteamine alone and determined to be 20.1%.

Series [3] relates to UV-induced lipid peroxidation. The series is described as follows: UV/liposomal assay of anti-oxidant activity after storage for five years at ambient temperatures. It counts as biochemical. As to conditions: for Inhibition: average of two separate assays performed in duplicate; for retention of antioxidant activity on storage: dry powder form, ambient temperatures, five years. Here is the method: The tocopherol sample used in this assay was freshly prepared and stored under argon gas in a sealed amber ampoule at -20° C. […] In contrast, the tocopherol-cysteamine samples used in the assay were stored in dry powder form at ambient temperatures for more than five years. […] In particular, several materials, including two batches of tocopherol-cysteamine, were tested for anti-oxidant activity using a UV/liposomal assay. The results reported below represent the average of two separate assays performed in duplicate.

Series [4] relates to lipid peroxidation, human skin. Description: clinical study, lipid peroxides in ethanol washes of ventral forearms after topical cream. It counts as in vivo. To be noted: for average level of peroxides, 500 mJ/cm^2 + Ao: UVB 500 mJ/cm^2; for average level of peroxides, 0 + Ao: not irradiated. Here is the method: A clinical study was undertaken in order to measure the effectiveness of topically applied compositions containing tocopherol-cysteamine on human skin. Protection against lipid peroxidation was used as a biological marker in a study of twenty subjects.
A cream containing 0.10% tocopherol-cysteamine and other antioxidants was prepared using the batch formulation of Table III.
The cream containing 0.10% tocopherol-cysteamine was applied by the panelists to their left ventral forearms twice daily. The same cream formulation without any antioxidants was used as the control and applied to the right ventral forearms. At 0, 4, 8 and 12 weeks, ethanol washes were taken and samples aliquoted for endogenous levels of lipid peroxides, susceptibility to lipid peroxidation by UVB irradiation at 500 mJ/cm^2, and lipid analysis.

For series [5] the following is noted: ambient temperatures, over a period of one week; cited from earlier work.
[6] abbreviates: week 0, cream 0.10% tocopherol-cysteamine and other antioxidants.
Where [7] appears, read: week 4, cream 0.10%, twice daily.
Where [8] appears, read: week 8, cream 0.10%, twice daily.
Where [9] appears, read: week 12, cream 0.10%, twice daily.

We go through four compounds from patent US5811083A, “Tocopherol derivatives for use in cosmetic compositions” (Estee Lauder, Inc., priority 1996, dated 1998).

Entries after “also recorded” stand apart in the source; their conditions may differ.

On to `Cc1c(C)c2c(c(C)c1O)CCC(C)(C(=O)O)O2` (stereo not drawn) [Trolox-C, 6-hydroxy-2,5,7,8-tetra-methylchroman-2-carboxylic acid], for which the “antioxidant activity vs α-tocopherol and other commercial food antioxidants (butylated hydroxytoluene, butylated hydroxyanisole)” value in series [1] (Schaal thin layer oven and AOM tests) is “greater antioxidant activity than α-tocopherol and other commercial food antioxidants”. The “antioxidant effectiveness in vegetable oils and animal fats” value in series [1] (vegetable oils and animal fats) is “extremely effective antioxidant”.

Turning to `Cc1c(C)c2c(c(C)c1O)CCC(C)(C(=O)NCCS)O2` (stereo not drawn) [Tocopherol-cysteamine], the “% Inhibition (UV-induced lipid peroxidation)” value (shortened to “% Inhibition”) in series [2] (0.18 mM) was determined as 67.3%. Also, the “antioxidant activity vs α-tocopherol and cysteamine assays combined” value in series [2] (equimolar, 0.18 mM) is “greater than that activity observed in both the α-tocopherol and cysteamine assays combined”. Further, in series [2] (triplicate samplings assayed in duplicate), the “average inhibition of UV-induced lipid peroxidation, previous experiments” value is 65.2% (+/-3.61). Besides, the “activity of 5 year-old vs new batch” value in series [3] (0.010%, 5 year-old vs new batch) was “very similar”. Further, the Inhibition – broadly, the percentage by which the read-out fell short of the control – is recorded as 57.3% in series [3] (5 year-old, 0.010%) and 65.6% in series [3] (new batch, 0.010%). For the same compound, the “retention of antioxidant activity on storage” value in series [3] was “did not lose significant antioxidant activity over this five year period”; in series [3] (listed as tocopheryl-cysteamine), “does not lose any significant anti-oxidant activity”. For the same compound, the “stability compared with α-tocopherol” value in series [3] (storage at ambient temperatures) is recorded as “considerably more stable”. Besides, the “amount of endogenous peroxides, week 8 vs week 0” value in series [4] (8 weeks vs 0 time point, p value less than 0.1) is listed as “significant decrease”. In series [4] (8 weeks vs 0 time point, p<0.01, t test), the “amount of peroxides generated by UVB, week 8 vs week 0” value is on record as “significant decrease”. Moreover, the “average values vs untreated samples, 12 weeks” value in series [4] (12 week time point, control and irradiated preparations) is “lower than the untreated samples”. Also, in series [4] (irradiated, treated arms), the “peroxide levels after irradiation over the course of treatment” value is given as “decreased over the course of treatment”. Further, the “average endogenous peroxide levels over time” value in series [4] (treated but not irradiated) was “decreased over time”. The “average level of peroxides, 500 mJ/cm^2 + Ao” value in series [4] (setting [6]) is given as 17.69; in series [4] (setting [7]) it was 12.95; in series [4] (setting [8]) it was 10.33; in series [4] (setting [9]) it was 26.67. For the same compound, the “average level of peroxides, 0 + Ao” value in series [4] (setting [6]) came out at 9.10; in series [4] (setting [7]) it was 8.19; in series [4] (setting [8]) it was 6.56; in series [4] (setting [9]), 21.19.

As for `Cc1c(C)c2c(c(C)c1O)CCC(C)(CCCC(C)CCCC(C)CCCC(C)C)O2` (stereo not drawn) [Tocopherol, α-Tocopherol], in series [2] (0.18 mM), the “% Inhibition” value was found to be 28.9%. Further, the “loss of antioxidant potency on storage” value in series [5] was “lose its antioxidant potency, and in fact become a pro-oxidant; also recorded: gradually lose antioxidant potency and become a prooxidant”.

On to `NCCS` [Cysteamine, cysteamine, reference compound], for which, in series [2] (0.18 mM), the “% Inhibition” value stood at 20.1%.
